The test system of series [1] is S. aureus DSM 1104 SCV. Type of series: cell-based, Staphylococcus aureus. As to conditions: for MIC: S. aureus DSM 1104 SCV, Mueller-Hinton broth, 22 h + 2 h resazurin, 37 °C, 5% CO2, three parallels.
Protocol: For the determination of MIC, the standard broth microdilution procedure[45] was used with a slight modification[29]. Since the peptide stock solutions were prepared in 50% ethanol, the first rows of the 96-well microtiter plates were filled with 50 µl of 2 × concentrated Mueller-Hinton broth to reestablish the normal broth concentration after the addition of 50 µl peptide solutions. The MIC was determined as the lowest concentration that inhibited bacterial growth, judging from bacterial respiration in three parallels for each antibiotic. After incubation of the plates for 22 hours, the redox indicator resazurin (Sigma-Aldrich) was added to the wells (20 µl, 80 µM). The plates were incubated another 2 hours at 37 °C and 5% CO2. Respiration was determined as the difference in the absorption at 570 nm to 600 nm, using a microplate reader FLASHScan 550 (Analytik Jena).
Series [2] has as its system S. aureus DSM 1104 SCV biofilms. Briefly: Regrowth from pregrown biofilms on hydroxyapatite discs. Type of series: cell-based, Staphylococcus aureus. Conditions: 30 h on hydroxyapatite discs, 400 µg/ml, 18 h, regrowth 24 h in Todd-Hewitt broth.
Protocol: To characterize the viability of the biofilm cells, HAD with pregrown biofilms were exposed for 18 hours to supra-MBIC90 concentrations of the AMP, and - after washing - were placed into fresh TH broth. This procedure serves to determine possible planktonic regrowth from the cells that survived the treatment.
Biofilms were grown on standardized hydroxyapatite discs (3D Biotek). The discs were placed in 24-well microtiter plates and inoculated with a cell suspension from the overnight stationary culture, grown in Todd-Hewitt broth and diluted to OD550 = 0.2. After 30 hours of growth at 37 °C without agitation, the discs were placed for 18 hours in solutions containing 400 µg/ml of peptides, dissolved in 10% dimethyl sulfoxide and 150 mM sodium phosphate buffer (pH 7.2). For the control experiments and conventional antibiotics, pure sodium phosphate buffer was used. After the treatment, discs were washed with sodium phosphate buffer, placed into 1 ml of Todd-Hewitt broth and incubated at 37 °C with agitation at 200 rpm for 24 hours.
The test system of series [3] is S. aureus MRSA8 SCV. As to conditions: Mueller-Hinton broth, 22 h + 2 h resazurin, 37 °C, 5% CO2, three parallels. As for the experimental part:
(§1) For the determination of MIC, the standard broth microdilution procedure[45] was used with a slight modification. Since the peptide stock solutions were prepared in 50% ethanol, the first rows of the 96-well microtiter plates were filled with 50 µl of 2 × concentrated Mueller-Hinton broth to reestablish the normal broth concentration after the addition of 50 µl peptide solutions. The MIC was determined as the lowest concentration that inhibited bacterial growth, judging from bacterial respiration in three parallels for each antibiotic. After incubation of the plates for 22 hours, the redox indicator resazurin (Sigma-Aldrich) was added to the wells (20 µl, 80 µM). The plates were incubated another 2 hours at 37 °C and 5% CO2. Respiration was determined as the difference in the absorption at 570 nm to 600 nm, using a microplate reader FLASHScan 550 (Analytik Jena).

Series [4] relates to S. aureus MRSA9 SCV. As to conditions: Mueller-Hinton broth, 22 h + 2 h resazurin, 37 °C, 5% CO2, three parallels. As for the experimental part:
as §1
(In general: Resazurin is reduced to fluorescent resorufin, in cell work by metabolically active cells.)

Series [5] relates to S. aureus DSM 1104. Type of series: cell-based, Staphylococcus aureus. Conditions: DSM 1104.
Protocol: (§5) MBC was determined directly after the MIC evaluation. The 10 µl samples of all 8 dilution rows in the microtiter plates were spotted on square Mueller-Hinton agar plates and incubated overnight at 37 °C and 5% CO2. The MBC was determined as the concentration at which no bacterial colonies were obtained on the two parallel spotted plates.
Series [6] deals with S. aureus MRSA3. Type of series: cell-based, Staphylococcus aureus. Conditions: MRSA3.
Protocol: as §5
Series [7] has as its system S. aureus MRSA4. Type of series: cell-based, Staphylococcus aureus. As to conditions: MRSA4.
Protocol: as §5
The subject of series [8] is S. aureus MRSA9. Type of series: cell-based, Staphylococcus aureus. As to conditions: MRSA9.
Protocol: as §5
Series [9] concerns E. faecalis DSM 2570. Type of series: cell-based, Enterococcus faecalis. As to conditions: DSM 2570.
Protocol: as §5
For series [10], the system named is E. faecalis WW4. Type of series: cell-based, Enterococcus faecalis. Conditions: WW4.
Protocol: as §5
The test system of series [11] is E. faecalis WW6. Type of series: cell-based, Enterococcus faecalis. As to conditions: WW6.
Protocol: as §5
Series [12] deals with E. faecalis TRE1. Type of series: cell-based, Enterococcus faecalis. As to conditions: TRE1.
Protocol: as §5
The test system of series [13] is E. faecalis TRE2. Type of series: cell-based, Enterococcus faecalis. Conditions: TRE2.
Protocol: as §5
Series [14] deals with E. faecalis TRE4. Type of series: cell-based, Enterococcus faecalis. Conditions: TRE4.
Protocol: as §5
The test system of series [15] is E. faecium VRE1. Type of series: cell-based, Enterococcus faecium. Conditions: VRE1.
Protocol: as §5
Series [16] deals with E. faecium VRE2. Type of series: cell-based, Enterococcus faecium. Conditions: VRE2.
Protocol: as §5
The subject of series [17] is S. aureus DSM 1104 SCV. Type of series: cell-based, Staphylococcus aureus. Conditions: value in parentheses. The method, then:
(§2) This parameter quantifies the ability of the peptides to prevent biofilm outgrowth.
(§3) After co-incubation with peptides at 37 °C and 5% CO2 without agitation for 24 hours, the planktonic cells were washed, and Crystal violet staining was applied.

Series [18] concerns E. faecalis DSM 2570. As to conditions: DSM 2570, 24 h. The method, then: as §2, §3
Series [19] concerns E. faecalis TRE2. Conditions: TRE2, 24 h. As for the experimental part: as §2, §3
The test system of series [20] is E. faecalis WW6. Conditions: WW6, 24 h. The method, then: as §2, §3
Series [21] relates to S. aureus DSM 1104. As to conditions: DSM 1104, 24 h. As for the experimental part:
as §2, §3

For series [22], the system named is S. aureus MRSA8 SCV. Conditions: value in parentheses. The method, then: as §2, §3
Series [23] has as its target human serum albumin (HSA) (Homo sapiens, UniProt P02768). Description: HSA binding, biomimetic chromatography. The method, then:
(§4) HPLC was performed on an Agilent 1100 system with an ultraviolet diode array detector. […] Binding measurements were performed using Regis Technologies IAM.PC.DD2 (100 × 4.6 mm), HiChrom Chiralpak-HSA (50 × 3 mm) and HiChrom Chiralpak-AGP (50 × 3 mm) columns. […] Retention times were converted to log k and % binding, using calibration routines described in[72].

Series [24] relates to α1-acid glycoprotein (AGP). Briefly: AGP binding, biomimetic chromatography. As for the experimental part:
as §4

Series [25] can be described thus: physchem. As for the experimental part:
as §4

In series [26] the test system is Danio rerio embryos. Briefly: Acute toxicity in Danio rerio embryos. Type of series: in vivo. As to conditions: zebrafish embryos 72 hpf, E3 medium, heart beat; for 1h LD50: 1 hour exposure; for 3h LD50: 3 hours exposure. As for the experimental part:
Experiments were performed in accordance with the relevant OECD testing guidelines[73] and German animal protection standards. Wild type D. rerio embryos were obtained at the European Zebrafish Resource Center (Karlsruhe). Fertilized eggs (6 hpf) were raised in 4 ml of embryonic medium (E3) at 28 °C until 72 hpf (6-well plate, 20 eggs/well). Embryos were transferred into flat-bottom glass vials (E3, 1 ml, 15–20 embryos/vial). Peptides were added as 20 µl aliquots in 10% dimethyl sulfoxide in serial 2-fold dilutions. Toxicity was expressed as the concentration at which 50% of the embryos were visually observed to die (measured at 1 and 3 hours exposure) by identifying the heart beat.

The test system of series [27] is human erythrocytes. Briefly: Haemolysis assay. As to conditions: red cells of human. Type of series: cell-based. The method, then: Haemolytic activity was determined with a serial 2-fold dilution assay. Citrate phosphate dextrose-stabilized human erythrocyte suspensions were obtained from Karlsruhe Municipal Hospital. […] The mixture was pelleted (13 000 rpm, 10 min, 4 °C), and the absorbance of the supernatant was recorded at 540 nm vs. reaction buffer. The extent of haemolysis was related to the action of 0.1% Triton X-100 (100%).

Series [28] has as its system S. aureus MRSA538 SCV. As to conditions: Mueller-Hinton broth, 22 h + 2 h resazurin, 37 °C, 5% CO2, three parallels. As for the experimental part: as §1
Series [29] has as its system S. aureus DSM 1104 SCV. Type of series: cell-based, Staphylococcus aureus. Conditions: spotted from MIC plates on Mueller-Hinton agar, overnight, no colonies. The method, then:
MBC was determined directly after the MIC evaluation.

The test system of series [30] is enterococci. Type of series: cell-based, Enterococcus faecalis, Enterococcus faecium. Conditions: 22 h.
Series [31] has as its system subtilisin. As to conditions: serine protease isolated from B. subtilis; cited from earlier work. An excerpt: This intrinsic cell-uptake activity has already been explored in eukaryotic cells to specifically target mitochondria with GS derivatives. In the context of prokaryotic cells, together with the ability to bind certain nucleotides and small phosphorylated molecules[29]–[33], GS thus seems to be capable ...

Where a SMILES comes first, the peptide text is derived from it. Where no end group is shown, it is not given here. [ ]: non-standard residue; d: D form. Orn = NCCC[C@H](N)C(=O)O

Chain of human serum albumin (HSA) (P02768 25-609): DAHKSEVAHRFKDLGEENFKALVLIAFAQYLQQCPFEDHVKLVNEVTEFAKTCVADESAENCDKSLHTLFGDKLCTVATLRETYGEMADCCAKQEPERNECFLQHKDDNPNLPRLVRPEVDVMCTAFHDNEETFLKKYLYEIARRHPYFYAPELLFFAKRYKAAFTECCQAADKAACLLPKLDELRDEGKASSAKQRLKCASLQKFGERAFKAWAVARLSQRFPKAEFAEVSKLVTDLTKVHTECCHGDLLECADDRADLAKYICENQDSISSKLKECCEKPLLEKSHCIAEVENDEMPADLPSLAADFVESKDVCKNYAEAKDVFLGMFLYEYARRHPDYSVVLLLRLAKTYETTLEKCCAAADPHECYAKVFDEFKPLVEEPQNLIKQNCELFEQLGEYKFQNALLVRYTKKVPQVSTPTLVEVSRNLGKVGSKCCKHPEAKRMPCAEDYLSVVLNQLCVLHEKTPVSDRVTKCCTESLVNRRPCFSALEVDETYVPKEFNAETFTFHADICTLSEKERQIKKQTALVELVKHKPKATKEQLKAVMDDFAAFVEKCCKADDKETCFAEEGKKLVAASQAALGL

For the molecule `Cc1onc(-c2ccccc2)c1C(=O)N[C@@H]1C(=O)N2[C@@H]1SC(C)(C)[C@@H]2C(=O)O` [OXA, oxacillin], the “Concentration effective against the planktonic cells (SI Table S1)” value in [1] (DSM 1104 SCV planktonic cells, standard broth microdilution) is 0.25 µg/mL. Also, the “Biofilm regrowth after treatment” value in [2] is “tolerant”.

FVQWFSKFLGRIL-NH2 [TL, temporin L]: the MIC in series [1], in series [3] and in series [4] was 8 (5) µg/ml in each case. Also, the MBC was 16 (10) µg/ml in [5]; 32 (20) µg/ml in series [6]; 32 (20) µg/ml in series [7]; 32 (20) µg/ml in series [8]; 16 (10) µg/ml in series [9]; 32 (20) µg/ml in series [10]. Further, the MBC in [11] was 32 (20) µg/ml; in series [12], 32 (20) µg/ml; in series [13], 32 (20) µg/ml; in series [14], 32 (20) µg/ml; in series [15] it was 16 (10) µg/ml; in [16], 16 (10) µg/ml. Further, the MBIC90 in series [17] was 20 µM; in series [18] it was 39 µM; in [19] it was 78 µM; in series [20], 78 µM; in series [21], 5 µM; in series [22] it was 5 µM. The “log k HSA” value in [23] (pH 7.4) was found to be 1.68. Further, in series [24] (pH 7.4), the “log k AGP” value was 1.23. For the same molecule, the chromatographic logD (usually a lipophilicity value derived from retention on a column) is 0.65 in [25] (pH 2.6), 2.92 in [25] (pH 7.4) and 4.95 in series [25] (pH 10.5). For the same molecule, the “1h LD50” value in series [26] came out at 7 µg/mL. The “3h LD50” value in series [26] stood at 7 µg/mL. Further, the “Haemolysis at 5 μM” value in series [27] was determined as 57%. Moreover, the “Haemolysis at 10 μM” value in series [27] came to 99%.

For `CC(C)C[C@@H]1NC(=O)[C@H](CCCN)NC(=O)[C@H](C(C)C)NC(=O)[C@@H]2CCCN2C(=O)[C@@H](Cc2ccccc2)NC(=O)[C@H](CC(C)C)NC(=O)[C@H](CCCN)NC(=O)[C@H](C(C)C)NC(=O)[C@@H]2CCCN2C(=O)[C@@H](Cc2ccccc2)NC1=O` [GS, gramicidin S] (cyclo(V[Orn]L[dF]PV[Orn]L[dF]P)), the MIC is reported as 4 (4) µg/ml in series [1], 8 (7) µg/ml in series [28], 4 (4) µg/ml in [3] and 4 (4) µg/ml in series [4]. For the same molecule, the MBC in series [5] is on record as 8 (7) µg/ml; in series [29] it was 8 (7) µg/ml; in series [6] it was 16 (14) µg/ml; in [7] it was 16 (14) µg/ml; in series [8], 16 (14) µg/ml; in [9], 8 (7) µg/ml. For the same molecule, the MBC in [10] was 16 (14) µg/ml; in series [11], 16 (14) µg/ml; in [12], 16 (14) µg/ml; in [13] it was 16 (14) µg/ml; in series [14], 8 (7) µg/ml; in series [15] it was 8 (7) µg/ml. Also, the MBC in series [16] is given as 8 (7) µg/ml. The MBIC90 in series [17] came out at 14 µM; in series [18], 7 µM; in series [19], 14 µM; in series [20], 14 µM; in [21] it was 4 µM; in series [22], 4 µM. For the same molecule, the “Bound HSA” value in [23] (Chiralpak-HSA column, 50 mM ammonium acetate pH 7.4, 0–35% 2-propanol gradient, calibrated retention times, UV) is 97.45%. The “log k HSA” value in series [23] (Chiralpak-HSA column, pH 7.4, 0–35% 2-propanol gradient, value in parentheses) came out at 1.44. Also, the “Bound AGP” value in [24] (Chiralpak-AGP column, 50 mM ammonium acetate pH 7.4, 0–35% 2-propanol gradient, calibrated retention times, UV) worked out at 92.92%. Further, in [24] (Chiralpak-AGP column, pH 7.4, 0–35% 2-propanol gradient, value in parentheses), the “log k AGP” value is given as 1.06. Besides, the results for the chromatographic logD in series [25] (pH 2.6), in series [25] (pH 7.4) and in [25] (pH 10.5) were 1.5, 3.51 and 7.52, respectively. The “1h LD50” value in series [26] stood at 8 µg/mL. Also, the “3h LD50” value in series [26] worked out at 5 µg/mL. In addition, the “Haemolysis at 5 μM” value in series [27] was 7%. For the same molecule, the “Haemolysis at 10 μM” value in series [27] was 54%. The MIC against enterococci result in [30] was “approximately 8 µg/ml”. Moreover, in series [31], the Degradation by protease entry is given as “effective in degrading”.

These data come from article PMC6884456, “Supreme activity of gramicidin S against resistant, persistent and biofilm cells of staphylococci and enterococci” (Scientific Reports, 2019).
